Measured values taken from ChEMBL document CHEMBL1201862, “PubChem BioAssay data set” (2004).
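Five concentrations, 48 hours, 96-well plates. At the GI50, growth is halved.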 The source made the active and inactive calls. No stated cut-off is given here; in the data, active = GI50 up to about 1.1 µM and inactive = higher.

Tests used:
Experiment in all cases: growth of human tumour cells (NCI), 48 h
[1] = tested on: UACC-257
[2] = tested on: SK-MEL-2
[3] = tested on: OVCAR-8
[4] = tested on: HCT-116
[5] = tested on: M19-MEL
[6] = tested on: UACC-62
[7] = tested on: DMS-273
[8] = tested on: LOX IMVI
[9] = tested on: SF-539
[10] = tested on: SK-MEL-5
[11] = tested on: NCI/ADR-RES
[12] = tested on: CAKI-1
[13] = tested on: KM12
[14] = tested on: MCF7
[15] = tested on: SW-620
[16] = tested on: CCRF-CEM
[17] = tested on: DLD-1
[18] = tested on: OVCAR-5
[19] = tested on: KM-20L2
[20] = tested on: HOP-92
[21] = tested on: SF-295
[22] = tested on: HOP-18
[23] = tested on: A498
[24] = tested on: DMS-114
[25] = tested on: HCC 2998
[26] = tested on: UO-31
[27] = tested on: U-251
[28] = tested on: A549
[29] = tested on: OVCAR-3
[30] = tested on: SK-MEL-28
[31] = tested on: NCI-H460
[32] = tested on: SF-268
[33] = tested on: RPMI-8226
[34] = tested on: SNB-19
[35] = tested on: HOP-62
[36] = tested on: SN12C
[37] = tested on: HCT-15
[38] = tested on: MOLT-4
[39] = tested on: EKVX
[40] = tested on: NCI-H522
[41] = tested on: Malme-3M
[42] = tested on: SNB-75
[43] = tested on: HL-60
[44] = tested on: HT-29
[45] = tested on: RXF 393
[46] = tested on: NCI-H226
[47] = tested on: IGROV-1
[48] = tested on: SK-OV-3
[49] = tested on: XF498
[50] = tested on: OVCAR-4
[51] = tested on: K562
[52] = tested on: NCI-H23
[53] = tested on: COLO 205

Question: For `C[C@H](N)C(=O)N[C@@H]1[C@H]2C(=C(O)C[C@@H](O)[C@@H]2O)C(=O)O[C@@H]1C`, which GI50 [1] is on record?
Answer: The GI50 was > 100 µM (inactive).

Question: And the GI50 [2]?
Answer: The GI50 was > 100 µM (inactive).

Question: And the GI50 [3]?
Answer: Its GI50 is > 100 µM (inactive).

Question: What about the GI50 [4] of the same compound?
Answer: The GI50 was > 100 µM (inactive).

Question: What about the GI50 [5] of the same compound?
Answer: Its GI50 is > 100 µM (inactive).

Question: And the GI50 [6]?
Answer: Its GI50 is > 100 µM (inactive).

Question: And the GI50 [7]?
Answer: Its GI50 is > 100 µM (inactive).

Question: What about the GI50 [8] of the same compound?
Answer: The GI50 was > 100 µM (inactive).

Question: And the GI50 [9]?
Answer: Its GI50 is > 100 µM (inactive).

Question: And the GI50 [10]?
Answer: Its GI50 is > 100 µM (inactive).

Question: And the GI50 [11]?
Answer: Its GI50 is > 100 µM (inactive).

Question: What about the GI50 [12] of the same compound?
Answer: The GI50 was > 100 µM (inactive).

Question: And the GI50 [13]?
Answer: Its GI50 is > 100 µM (inactive).

Question: And the GI50 [14]?
Answer: Its GI50 is > 100 µM (inactive).

Question: What about the GI50 [15] of the same compound?
Answer: Its GI50 is > 100 µM (inactive).

Question: And the GI50 [16]?
Answer: The GI50 was > 53.8 µM (inactive).

Question: And the GI50 [17]?
Answer: The GI50 was > 100 µM (inactive).

Question: What about the GI50 [18] of the same compound?
Answer: Its GI50 is > 100 µM (inactive).

Question: And the GI50 [19]?
Answer: The GI50 was > 100 µM (inactive).

Question: What about the GI50 [20] of the same compound?
Answer: The GI50 was > 100 µM (inactive).

Question: And the GI50 [21]?
Answer: Its GI50 is > 100 µM (inactive).

Question: And the GI50 [22]?
Answer: The GI50 was 76.9 µM (inactive).

Question: And the GI50 [23]?
Answer: The GI50 was > 100 µM (inactive).

Question: And the GI50 [24]?
Answer: The GI50 was > 100 µM (inactive).

Question: And the GI50 [25]?
Answer: The GI50 was > 100 µM (inactive).

Question: And the GI50 [26]?
Answer: Its GI50 is > 100 µM (inactive).

Question: What about the GI50 [27] of the same compound?
Answer: The GI50 was > 100 µM (inactive).

Question: What about the GI50 [28] of the same compound?
Answer: Its GI50 is > 100 µM (inactive).

Question: What about the GI50 [29] of the same compound?
Answer: The GI50 was > 100 µM (inactive).

Question: And the GI50 [30]?
Answer: Its GI50 is > 100 µM (inactive).

Question: And the GI50 [31]?
Answer: The GI50 was > 100 µM (inactive).

Question: And the GI50 [32]?
Answer: Its GI50 is > 100 µM (inactive).

Question: What about the GI50 [33] of the same compound?
Answer: Its GI50 is > 100 µM (inactive).

Question: And the GI50 [34]?
Answer: Its GI50 is 77.4 µM (inactive).

Question: And the GI50 [35]?
Answer: The GI50 was > 100 µM (inactive).

Question: What about the GI50 [36] of the same compound?
Answer: Its GI50 is > 100 µM (inactive).

Question: What about the GI50 [37] of the same compound?
Answer: Its GI50 is greater than 100 µM.

Question: What about the GI50 [38] of the same compound?
Answer: Its GI50 is > 100 µM (inactive).

Question: What about the GI50 [39] of the same compound?
Answer: The GI50 was > 100 µM (inactive).

Question: What about the GI50 [40] of the same compound?
Answer: Its GI50 is > 100 µM (inactive).

Question: And the GI50 [41]?
Answer: The GI50 was > 100 µM (inactive).

Question: And the GI50 [42]?
Answer: The GI50 was > 100 µM (inactive).

Question: What about the GI50 [43] of the same compound?
Answer: The GI50 was > 80.4 µM (inactive).

Question: And the GI50 [44]?
Answer: The GI50 was > 100 µM (inactive).

Question: What about the GI50 [45] of the same compound?
Answer: Its GI50 is > 100 µM (inactive).

Question: What about the GI50 [46] of the same compound?
Answer: Its GI50 is > 100 µM (inactive).

Question: What about the GI50 [47] of the same compound?
Answer: Its GI50 is > 100 µM (inactive).

Question: What about the GI50 [48] of the same compound?
Answer: Its GI50 is > 100 µM (inactive).

Question: What about the GI50 [49] of the same compound?
Answer: Its GI50 is > 82 µM (inactive).

Question: What about the GI50 [50] of the same compound?
Answer: Its GI50 is > 100 µM (inactive).

Question: And the GI50 [51]?
Answer: The GI50 was > 100 µM (inactive).

Question: And the GI50 [52]?
Answer: The GI50 was > 100 µM (inactive).

Question: And the GI50 [53]?
Answer: The GI50 was > 100 µM (inactive).
